One compound from US20230233584A1, “EXTENDED RELEASE 5-HT RECEPTOR AGONISTS FOR NEUROLOGICAL CONDITIONS” (Diamond Therapeutics Inc., priority 2020, published 2023) can be followed below.

Format in all cases: in vivo
The subject of data set [1] is rats. Briefly: Locomotor activity, distance travelled. The source says: Stimulant drugs cause far larger increases in distance travelled with escalating doses, reflective of a direct motor stimulant property not seen with psilocybin.
Data set [2] relates to Long Evans rats. Briefly: 5CSRTT, acute dosing, 10 s ITI, premature (PREM) and perseverant (PSV) responses. From the text:
Using a longer duration between stimulus and reward, the 5CSRTT study measures premature (PREM) and perseverant (PSV) responses. PREM/PSV responses were increased by increasing the ITI from 5 s (baseline) to 10 s (test condition). […] Both PREM and PSV behaviors are examples of executive cognitive function, likely involving areas of the prefrontal cortex, a brain region rich in 5-HT2A receptors.

Data set [3] deals with 5-HT2A receptor activation. Put plainly: Motor activity and overt stereotypies during minipump dosing. As to conditions: psilocybin minipump, 12 days, rats. As for the experimental part: There were no changes in motor activity (distance travelled, rearing counts), or induction of overt stereotypies, including cardinal signs of 5-HT2A receptor activation (Wet Dog Shakes and Back Muscle Contractions (WDS, BMD). At the completion of 12 days testing the rats were euthanized and cardiac and brain tissue were collected and snap frozen. Histological analysis was performed for the samples.

Data set [4] has as its system Long Evans rats. Put plainly: Progressive ratio (PR) test, Study B. The protocol:
(§1) General: Experiments were conducted to test psilocybin doses in the range of 0.01-0.2 mg/kg psilocybin administered S.C. across progressive ratio (PR) and 5-choice serial reaction time task (5CSRTT) to examine the effect of psilocybin on endophenotypes of motivation and attention. In each study, a population of out-bred Long Evans rats was first tested as a group for response to the PR and 5CSRTT. Each group was then divided into subgroups by tertiles according to performance, and then exposed to various dose levels immediately prior to re-testing at various psilocybin dose levels.
(§2) The PR test is used to answer how willing the test subject is to work for food (i.e. test of motivation). A single 45 mg food pellet (i.e. reinforcer) is made available to the test animal based on lever press response. To obtain each successive pellet, the animal must make increasingly more lever presses. Typically, a progression of 2, 4, 6, 9, 12, 15, 20, 25, 32, 40, 50, 62, 77, 95, 118, etc. is used, derived from the equation:
(§3) ratio=[5×e^(0.2×reinforcer #)−5]
(§4) At some point, the animal gives up as the motor demands to obtain a single pellet are not deemed worthwhile (i.e. animal reaches “break point” defined as animal's failure to earn a food pellet in 20 minutes).
Study B: Based on Study 1 outcome, a follow-up PR study was conducted utilizing a larger cohort size (72 rats total), and incorporating a lower dose of psilocybin (0.025 mg/kg SC) (FIG. 2C and FIG. 2D). […] Separation of rats based on the lowest average break point recorded over the 7 days prior to testing identified a “low responder” subgroup of N=24 rats. […] There was no treatment effect on session duration (F3,69=2.4; P=0.07, NS), although there was trend for this to be increased at the 0.1 mg/kg dose (Veh: 15.1+2.0 min; Psilo 0.1 mg/kg: 18.7+2.5 min).

Data set [5] can be described thus: Body weight during 12-day minipump study. The following applies: rats.
The test system of data set [6] is Long Evans rats. Briefly: Progressive ratio (PR) test, Study A. As to conditions: for food responding: low responder subgroup. The protocol: as §1, §2, §3, §4
Study A: Psilocybin was administered to rats S.C. at doses of 0.05, 0.1 and 0.2 mg/kg.
Rats were then sub-grouped into tertiles based on the number of lever presses for food at baseline, so that within the test population of 36 animals, 12 animals were identified as low responders, characterized by low motivation and potentially corresponding to low motivation endophenotype representative of clinical depression. Twelve animals were identified as high responders. There was a statistically significant difference between the high and low responders. […] This represents a motivational enhancing effect of psilocybin at the 0.05 mg/kg dose in the cohort corresponding to a low motivation endophenotype representative of clinical depression.

Data set [7] has as its system 5-HT2A receptor activity. Put plainly: Dose finding: behavioral syndrome, wet dog shakes (WDS) and back muscle contractions (BMC). The following applies: rats. As for the experimental part: Psilocybin was tested at a dose range of 0.03-10.0 mg/kg administered subcutaneously (S.C.) Behavioral syndrome including wet dog shakes (WDS) and back muscle contractions (BMC) are characteristic of 5-HT2A receptor activity and potentially indicative of psychomotor signs. […] There is a parallel between behaviors such as WDS in rats and hallucination in humans (Behavioral Neurobiology of Psychedelic Drugs, Halberstadt, Adam, Vollenweider, Franz X., Nichols, David E. (Eds.), Springer, 2018, p 161).

Setting [8] is: 0.025-0.1 mg/kg SC, all 72 rats.

On to `CN(C)CCc1c[nH]c2cccc(OP(=O)(O)O)c12` [psilocybin, 4-phosphoryloxy-N,N-dimethyltryptamine], for which the entries for the “motor activity distance travelled” value in data set [1] (high doses) and in data set [1] (low doses) were “slightly decreased distanced travelled” and “increase in motor activity distance travelled”, respectively. For the same compound, the “PREM and PSV responses” value in data set [2] (0.05 mg/kg S.C., 24 rats, p=0.05) is listed as “increase”. In data set [2] (0.05 and 0.1 mg/kg, low responders (N=8), p<0.01 vs vehicle), the “premature responses and perseverative responses” value was “marked increases”. Moreover, the “motor activity (distance travelled, rearing counts), overt stereotypies incl. WDS and BMC” value in data set [3] was “no changes”. The session duration in data set [4] (0.1 mg/kg, low responder cohort) is 18.7+2.5 min; in data set [6] (0.05 mg/kg, low responders, P=0.07 vs. vehicle) it was 10.8 ± 1.9 min. Besides, in data set [4] (setting [8]), the break point entry is recorded as “no treatment group was significantly different to vehicle”. For the same compound, the “number of lever presses, session duration” value in data set [4] (setting [8]) is “no main effect of treatment”. In addition, the “lever press and break point” value in data set [4] (0.05-0.1 mg/kg pretreatment, low responder cohort N=24, relative to vehicle) is “increases in both measures”. Moreover, the “Body Weight, Day 1 vs. Day 12, Average” value in data set [5] (Psilocybin 4 mg/mL minipump) came out at 20.6; in data set [5] (Psilocybin 6 mg/mL minipump), 19.3; in data set [5] (Psilocybin 8 mg/mL minipump), 24.4. Further, the “body weight over the study course” value in data set [5] (psilocybin minipump, 12 day study course) is given as “gaining body weight”. The “weight gain compared with placebo treated animals” value in data set [5] (psilocybin minipump, 12 days) is recorded as “gained weight to a lesser amount”. Besides, the values for the food responding result in data set [6] (0.05 mg/kg) and in data set [6] (0.1 mg/kg) were “increase in food responding” and “did not produce an increase in food responding”, respectively. Further, the “number of lever presses and break point” value in data set [6] (0.05 mg/kg, low responders, P<0.05 vs. vehicle) is recorded as “significant increase”. Besides, in data set [6] (0.05, 0.1 and 0.2 mg/kg S.C., entire study population of 36 rats), the “number of lever presses or break points” value is “None of these doses were observed to cause obvious changes”. Also, the “response in PR test” value in data set [6] (0.05-0.2 mg/kg S.C., high responder subgroup) is “no effect on response”. For the same compound, the “signs of behavioral syndrome (WDS/BMC)” value in data set [7] (0.3 mg/kg I.P and higher) is “significant signs of behavior syndrome”; in data set [7] (0.03-0.1 mg/kg S.C.), “no signs of behavioral syndrome”.
